# Assay: TEASE-1: safety and adverse events
# Format: in vivo, human
# Protocol: The Tolerability and Effects of gildeuretinol acetate in Stargardt Disease (Clinical trial group 1 also known as TEASE-1) was a 24-month, multicenter, double-masked, placebo-controlled trial designed to evaluate the efficacy and safety of daily oral gildeuretinol acetate in slowing the growth of atrophic retinal lesions in Stargardt disease patients. The trial was conducted at multiple sites in the United States (NCT02402660).
# Patients 12 years or older, clinically diagnosed with Stargardt disease, with at least one ABCA4 mutation, at least one eye presenting with well-demarcated areas of reduced fundus autofluorescence, and with any visual acuity, were eligible.
# Patients were randomized to gildeuretinol acetate 14 mg capsules, gildeuretinol acetate 24 mg capsules, or placebo capsules, to be taken once daily for one year. After one year, 50% of randomly selected patients receiving placebo were crossed over in a 1:1 ratio to gildeuretinol acetate 14 mg capsules or gildeuretinol acetate 24 mg capsules for a second year.
# Gildeuretinol acetate and placebo capsules were identical appearing capsules. Patients were advised to avoid vitamin A-containing supplements and liver-based products. Fruits and vegetables contain beta-carotene, not preformed vitamin A, and could be consumed without limitation. Trial visits occurred at 8 weeks and 6, 12, 18, and 24 months following screening and randomization.
compound,measurement,setting,value
"CC(=O)OC/C=C(C)/C=C/C=C(C)/C=C/C1=C(C)CCCC1(C)C [gildeuretinol acetate, C20-D3-retinol acetate]","changes by physical examination, electrocardiogram, vital signs, hematology, biochemistry and lipid panels",14 mg and 24 mg,no changes were attributed to gildeuretinol acetate
same,changes in visual acuity,14 mg and 24 mg,No changes in visual acuity were observed
same,discontinuation due to side effects,14 mg and 24 mg,no patient discontinued treatment due to side effects
same,serious adverse events,14 mg and 24 mg,No serious adverse events
same,severity of adverse events,14 mg and 24 mg,mild or moderate
same,association between treatment groups and frequency of adverse events,14 mg and 24 mg vs placebo,no association was observed
same,Abdominal discomfort,"14 mg, N = 15",0 patients (%)
same,Abdominal distension,"14 mg, N = 15",0 patients (%)
same,Abdominal pain upper,"14 mg, N = 15",0 patients (%)
same,Abnormal dreams,"14 mg, N = 15",0 patients (%)
same,"Adverse events, Overall","14 mg, N = 15",12 (80) patients (%)
same,Alanine aminotransferase increased,"14 mg, N = 15",1 (6.7) patients (%)
same,Alopecia,"14 mg, N = 15",2 (13.3) patients (%)
same,Ankle fracture,"14 mg, N = 15",1 (6.7) patients (%)
same,Arthralgia,"14 mg, N = 15",1 (6.7) patients (%)
same,Arthritis,"14 mg, N = 15",0 patients (%)
same,Aspartate aminotransferase increased,"14 mg, N = 15",1 (6.7) patients (%)
same,Back injury,"14 mg, N = 15",0 patients (%)
same,Back pain,"14 mg, N = 15",0 patients (%)
same,Blepharospasm,"14 mg, N = 15",0 patients (%)
same,Blood cholesterol increased,"14 mg, N = 15",0 patients (%)
same,Blood creatinine increased,"14 mg, N = 15",1 (6.7) patients (%)
same,Blood iron decreased,"14 mg, N = 15",0 patients (%)
same,Blood pressure increased,"14 mg, N = 15",0 patients (%)
same,Blood triglycerides increased,"14 mg, N = 15",1 (6.7) patients (%)
same,Bowel movement irregularity,"14 mg, N = 15",0 patients (%)
same,Bronchitis,"14 mg, N = 15",0 patients (%)
same,Cartilage injury,"14 mg, N = 15",1 (6.7) patients (%)
same,Conjunctival laceration,"14 mg, N = 15",0 patients (%)
same,Conjunctivitis,"14 mg, N = 15",1 (6.7) patients (%)
same,Constipation,"14 mg, N = 15",0 patients (%)
same,Cough,"14 mg, N = 15",0 patients (%)
same,Death,"14 mg, N = 15",1 (6.7) patients (%)
same,Depression,"14 mg, N = 15",1 (6.7) patients (%)
same,Diarrhoea,"14 mg, N = 15",1 (6.7) patients (%)
same,Diplopia,"14 mg, N = 15",0 patients (%)
same,Dry eye,"14 mg, N = 15",0 patients (%)
same,Dry mouth,"14 mg, N = 15",1 (6.7) patients (%)
same,Dry skin,"14 mg, N = 15",0 patients (%)
same,Ear discomfort,"14 mg, N = 15",0 patients (%)
same,Ear infection,"14 mg, N = 15",0 patients (%)
same,Ear pain,"14 mg, N = 15",0 patients (%)
same,Eczema,"14 mg, N = 15",0 patients (%)
same,Electrocardiogram abnormal,"14 mg, N = 15",0 patients (%)
same,Erythema,"14 mg, N = 15",0 patients (%)
same,Eye irritation,"14 mg, N = 15",1 (6.7) patients (%)
same,Eye pain,"14 mg, N = 15",0 patients (%)
same,Eye pruritus,"14 mg, N = 15",0 patients (%)
same,Face injury,"14 mg, N = 15",1 (6.7) patients (%)
same,Faeces soft,"14 mg, N = 15",1 (6.7) patients (%)
same,Fall,"14 mg, N = 15",1 (6.7) patients (%)
same,Gastroenteritis,"14 mg, N = 15",1 (6.7) patients (%)
same,Gastroenteritis viral,"14 mg, N = 15",0 patients (%)
same,Hair texture abnormal,"14 mg, N = 15",0 patients (%)
same,Hand fracture,"14 mg, N = 15",1 (6.7) patients (%)
same,Headache,"14 mg, N = 15",1 (6.7) patients (%)
same,Herpes zoster,"14 mg, N = 15",1 (6.7) patients (%)
same,Hordeolum,"14 mg, N = 15",0 patients (%)
same,Hypertension,"14 mg, N = 15",0 patients (%)
same,Hypobarism,"14 mg, N = 15",0 patients (%)
same,Hypothyroidism,"14 mg, N = 15",0 patients (%)
same,Hysterectomy,"14 mg, N = 15",0 patients (%)
same,Inflammation,"14 mg, N = 15",0 patients (%)
same,Influenza,"14 mg, N = 15",0 patients (%)
same,Insomnia,"14 mg, N = 15",1 (6.7) patients (%)
same,Intracranial pressure increased,"14 mg, N = 15",0 patients (%)
same,Irritability,"14 mg, N = 15",0 patients (%)
same,Jaw operation,"14 mg, N = 15",0 patients (%)
same,Knee arthroplasty,"14 mg, N = 15",1 (6.7) patients (%)
same,Laryngitis,"14 mg, N = 15",1 (6.7) patients (%)
same,Lip swelling,"14 mg, N = 15",0 patients (%)
same,Low density lipoprotein increased,"14 mg, N = 15",1 (6.7) patients (%)
same,Muscle spasms,"14 mg, N = 15",1 (6.7) patients (%)
same,Muscle strain,"14 mg, N = 15",0 patients (%)
same,Musculoskeletal pain,"14 mg, N = 15",1 (6.7) patients (%)
same,Nasopharyngitis,"14 mg, N = 15",2 (13.3) patients (%)
same,Nausea,"14 mg, N = 15",0 patients (%)
same,Neck pain,"14 mg, N = 15",0 patients (%)
same,Nephrolithiasis,"14 mg, N = 15",1 (6.7) patients (%)
same,Nerve compression,"14 mg, N = 15",0 patients (%)
same,Neuralgia,"14 mg, N = 15",1 (6.7) patients (%)
same,Obsessive-compulsive disorder,"14 mg, N = 15",0 patients (%)
same,Oropharyngeal pain,"14 mg, N = 15",0 patients (%)
same,Osteoporosis,"14 mg, N = 15",0 patients (%)
same,Pain,"14 mg, N = 15",2 (13.3) patients (%)
same,Pain in extremity,"14 mg, N = 15",1 (6.7) patients (%)
same,Pain in jaw,"14 mg, N = 15",0 patients (%)
same,Peripheral coldness,"14 mg, N = 15",0 patients (%)
same,Pharyngitis streptococcal,"14 mg, N = 15",1 (6.7) patients (%)
same,Photophobia,"14 mg, N = 15",1 (6.7) patients (%)
same,Photopsia,"14 mg, N = 15",1 (6.7) patients (%)
same,Plantar fasciitis,"14 mg, N = 15",1 (6.7) patients (%)
same,Pleurisy,"14 mg, N = 15",0 patients (%)
same,Pneumonia,"14 mg, N = 15",0 patients (%)
same,Premenstrual syndrome,"14 mg, N = 15",0 patients (%)
same,Punctate keratitis,"14 mg, N = 15",1 (6.7) patients (%)
same,Pyrexia,"14 mg, N = 15",0 patients (%)
same,Radius fracture,"14 mg, N = 15",1 (6.7) patients (%)
same,Rash,"14 mg, N = 15",1 (6.7) patients (%)
same,Rotator cuff syndrome,"14 mg, N = 15",0 patients (%)
same,Sialoadenitis,"14 mg, N = 15",1 (6.7) patients (%)
same,Sinus congestion,"14 mg, N = 15",0 patients (%)
same,Sinusitis,"14 mg, N = 15",1 (6.7) patients (%)
same,Sjogren's syndrome,"14 mg, N = 15",1 (6.7) patients (%)
same,Skin infection,"14 mg, N = 15",0 patients (%)
same,Subdural haematoma,"14 mg, N = 15",1 (6.7) patients (%)
same,Syncope,"14 mg, N = 15",0 patients (%)
same,Tendonitis,"14 mg, N = 15",1 (6.7) patients (%)
same,Thoracic outlet syndrome,"14 mg, N = 15",0 patients (%)
same,Tongue dry,"14 mg, N = 15",1 (6.7) patients (%)
same,Tooth abscess,"14 mg, N = 15",0 patients (%)
same,Tooth extraction,"14 mg, N = 15",0 patients (%)
same,Toothache,"14 mg, N = 15",0 patients (%)
same,Upper respiratory tract infection,"14 mg, N = 15",1 (6.7) patients (%)
same,Vision blurred,"14 mg, N = 15",1 (6.7) patients (%)
same,Visual field defect,"14 mg, N = 15",0 patients (%)
same,Visual impairment,"14 mg, N = 15",1 (6.7) patients (%)
same,Vitamin B12 deficiency,"14 mg, N = 15",1 (6.7) patients (%)
same,Vitamin D decreased,"14 mg, N = 15",2 (13.3) patients (%)
same,Vitreous floaters,"14 mg, N = 15",1 (6.7) patients (%)
same,Vulvovaginal candidiasis,"14 mg, N = 15",0 patients (%)
same,Wrist fracture,"14 mg, N = 15",0 patients (%)
same,Xanthelasma,"14 mg, N = 15",0 patients (%)
same,blurred optic disc margins with transient visual obscuration,"24 mg, 12-month visit, ocular exam",observed in one patient
same,Abdominal discomfort,"24 mg, N = 15",1 (6.7) patients (%)
same,Abdominal distension,"24 mg, N = 15",1 (6.7) patients (%)
same,Abdominal pain upper,"24 mg, N = 15",1 (6.7) patients (%)
same,Abnormal dreams,"24 mg, N = 15",1 (6.7) patients (%)
same,"Adverse events, Overall","24 mg, N = 15",13 (86.7) patients (%)
same,Alanine aminotransferase increased,"24 mg, N = 15",0 patients (%)
same,Alopecia,"24 mg, N = 15",0 patients (%)
same,Ankle fracture,"24 mg, N = 15",0 patients (%)
same,Arthralgia,"24 mg, N = 15",1 (6.7) patients (%)
same,Arthritis,"24 mg, N = 15",0 patients (%)
same,Aspartate aminotransferase increased,"24 mg, N = 15",0 patients (%)
same,Back injury,"24 mg, N = 15",0 patients (%)
same,Back pain,"24 mg, N = 15",1 (6.7) patients (%)
same,Blepharospasm,"24 mg, N = 15",0 patients (%)
same,Blood cholesterol increased,"24 mg, N = 15",1 (6.7) patients (%)
same,Blood creatinine increased,"24 mg, N = 15",0 patients (%)
same,Blood iron decreased,"24 mg, N = 15",1 (6.7) patients (%)
same,Blood pressure increased,"24 mg, N = 15",1 (6.7) patients (%)
same,Blood triglycerides increased,"24 mg, N = 15",0 patients (%)
same,Bowel movement irregularity,"24 mg, N = 15",1 (6.7) patients (%)
same,Bronchitis,"24 mg, N = 15",0 patients (%)
same,Cartilage injury,"24 mg, N = 15",0 patients (%)
same,Conjunctival laceration,"24 mg, N = 15",1 (6.7) patients (%)
same,Conjunctivitis,"24 mg, N = 15",0 patients (%)
same,Constipation,"24 mg, N = 15",1 (6.7) patients (%)
same,Cough,"24 mg, N = 15",2 (13.3) patients (%)
same,Death,"24 mg, N = 15",0 patients (%)
same,Depression,"24 mg, N = 15",0 patients (%)
same,Diarrhoea,"24 mg, N = 15",0 patients (%)
same,Diplopia,"24 mg, N = 15",1 (6.7) patients (%)
same,Dry eye,"24 mg, N = 15",1 (6.7) patients (%)
same,Dry mouth,"24 mg, N = 15",0 patients (%)
same,Dry skin,"24 mg, N = 15",1 (6.7) patients (%)
same,Ear discomfort,"24 mg, N = 15",1 (6.7) patients (%)
same,Ear infection,"24 mg, N = 15",0 patients (%)
same,Ear pain,"24 mg, N = 15",0 patients (%)
same,Eczema,"24 mg, N = 15",0 patients (%)
same,Electrocardiogram abnormal,"24 mg, N = 15",0 patients (%)
same,Erythema,"24 mg, N = 15",0 patients (%)
same,Eye irritation,"24 mg, N = 15",0 patients (%)
same,Eye pain,"24 mg, N = 15",1 (6.7) patients (%)
same,Eye pruritus,"24 mg, N = 15",1 (6.7) patients (%)
same,Face injury,"24 mg, N = 15",0 patients (%)
same,Faeces soft,"24 mg, N = 15",0 patients (%)
same,Fall,"24 mg, N = 15",1 (6.7) patients (%)
same,Gastroenteritis,"24 mg, N = 15",0 patients (%)
same,Gastroenteritis viral,"24 mg, N = 15",1 (6.7) patients (%)
same,Hair texture abnormal,"24 mg, N = 15",0 patients (%)
same,Hand fracture,"24 mg, N = 15",0 patients (%)
same,Headache,"24 mg, N = 15",2 (13.3) patients (%)
same,Herpes zoster,"24 mg, N = 15",0 patients (%)
same,Hordeolum,"24 mg, N = 15",1 (6.7) patients (%)
same,Hypertension,"24 mg, N = 15",1 (6.7) patients (%)
same,Hypobarism,"24 mg, N = 15",1 (6.7) patients (%)
same,Hypothyroidism,"24 mg, N = 15",1 (6.7) patients (%)
same,Hysterectomy,"24 mg, N = 15",1 (6.7) patients (%)

# — patent publication US20260345517A1, “DOSAGE REGIMENS FOR TREATING STARGARDT DISEASE” (Alkeus Pharmaceuticals, Inc., priority 2024, published 2026)
